Measured values reported in patent US9453031B2, “Chemical entities” (Fundación Centro Nacional de Investigaciones Oncológicas …, priority 2013, dated 2016).

Key:
ATR = ATR (Homo sapiens (Human), UniProt Q13535); assay: Cellular ATR inhibition, western blot of CHK1(S345) phosphorylation in hydroxyurea treated cells; type: cell-based; conditions: HT29 cells
Protocol: In addition to the selective system described above, Example compounds presented here were screened for their ability to inhibit intracellular ATR using a western blot assay to detect phosphorylation of the ATR substrate CHK1(S345) in hydroxyurea treated cells. HT29 cells are plated at 500,000 cells per well in 6-well plates in RPMI media (Sigma R6504) supplemented with 10% foetal bovine serum (Sigma F7524), Penicillin/Streptomycin solution diluted 1:100 (Gibco 15070-063), and fungizone (Gibco, 15290-018), and allowed to adhere overnight at 37° C. in 5% CO2. Compounds are then added to the cell media from a final concentration of 10 μM in 3-fold serial dilutions and the cells are incubated at 37° C. in 5% CO2. After 15 min, hydroxyurea (Sigma H8627) is added to a final concentration of 2.5 mM. After 30 min of treatment with hydroxyurea, the cells are washed in PBS, lysed adding 50 μl of in protein lysis buffer (50 mM Tris pH 7.5, 150 mM NaCl, 1% IGEPAL CO-630 (Sigma, Ref. 542334-100G-A), Phospho Stop (Roche, Ref. 04906837001) and Complete Mini EDTA free (Roche, Ref. 11836170001)). The protein content of the lysates was determined by the modified method of Bradford (Sigma, Ref. B6916). The proteins were resolved by SDS-PAGE and transferred to nitrocellulose membrane (VWR International Eurolab, Ref. 732-4007). The membranes were incubated overnight at 4° C. with antibodies specific for total CHK1 (Santa Cruz Biotechnology, sc-8404), phosphoserine-345 CHK1 (Cell Signaling Technology #2348) they were washed and then incubated with IRDye800 conjugated anti-mouse (Pierce/Cultek, 35521) and Alexa Fluor 680 goat anti-rabbit IgG secondary antibodies (Invitrogen, A21076). The bands were visualized and quantified using an Odyssey infrared imaging system (Li-Cor Biosciences). The percentage of phosphorylated CHK1 vs total CHK1 in cells treated with hydroxyurea was taken as hundred percent of phosphorylation. The percentage of CHK1 phosphorylation is finally plotted against concentration for each compound and EC50s for intracellular ATR inhibition are calculated using ActivityBase from IDBS.

PI3K (p110α/p85α) = PI3K (p110α/p85α) (Homo sapiens (Human), UniProt P42336); assay: PI3K alpha activity assay (ADP Hunter Plus); type: biochemical; conditions: 50 μM ATP, 30 μM PIP2; read-out: PI3Kα IC50
Protocol: The kinase activity was measured by using the commercial ADP Hunter™ Plus assay available from DiscoveRx (#33-016), which is a homogeneous assay to measure the accumulation of ADP, a universal product of kinase activity. […] The reaction was carried out for 1 hour at 25° C. Reagent A and B were sequentially added to the wells and plates were incubated for 30 min at 37° C. Fluorescence counts were read in a Victor instrument (Perkin Elmer) with the recommended settings (544 and 580 nm as excitation and emission wavelengths, respectively).

DNA-PK = DNA-PK (Homo sapiens (Human), UniProt P78527); assay: DNAPK activity assay (ADP Hunter Plus); type: biochemical; conditions: 75 μM ATP
Protocol: The kinase activity was measured by using the commercial ADP Hunter™ Plus assay available from DiscoveRx (#90-0083), which is a homogeneous assay to measure the accumulation of ADP, a universal product of kinase activity. The enzyme, DNA-PK was purchased from Promega (#V5811). The assay was done following the manufacturer recommendations with slight modifications: Mainly the kinase buffer was replace by 15 mM HEPES, pH 7.5, 10 mM MgCl2, 20 mM NaCl, 1 mM EGTA, 0.1 mg/mL BGG, 0.02% Tween 20. The DNA-PK was assayed in a titration experiment to determine the optimal protein concentration for the inhibition assay. To calculate the […] of the Compounds, serial 1:3 dilutions of the compounds were added to the enzyme at a fixed concentration (2 U/μL). The enzyme was preincubated with the inhibitor and 200 μM DNA substrate and then ATP was added to a final 75 μM concentration. Reaction was carried out for 1 hour at 37° C. Reagent A and B were sequentially added to the wells and plates were incubated for 30 min at RT. Fluorescence counts were read in a EnVision instrument (Perkin Elmer) with the recommended settings (550 and 590 nm as excitation and emission wavelengths, respectively).

mTOR = mTOR (Homo sapiens (Human), UniProt P42345); assay: mTOR activity assay (LanthaScreen); type: biochemical
Protocol: The enzymatic mTOR activity was measured using a LanthaScreen™ kinase activity assay (Invitrogen). The enzyme was purchased from Invitrogen (PV4754), as well as the GFP-labelled substrate (4EBP1-GFP; PV4759) and the Tb-antip4EBP1(pThr46) antibody (PV4757). The assay was performed in 50 Mm HEPES buffer, pH 7.5, containing 1.5 mM MnCl2, 10 mM MgCl2, 1 mM EGTA, 2.5 mM DTT and 0.01% Tween-20. The concentration of the assay components were the following: 0.24 nM mTOR kinase, 400 nM 4EBP1-GFP, […] and serial dilutions of the compound (inhibitor) to be evaluated. After 1 h incubation at room temperature, 20 mM EDTA was used to stop the reaction and terbium-labelled antibody (4 nM) added to detect phosphorylated product. The antibody associates with the phosphorylated product resulting in an increased TR-FRET value. The TR-FRET value (a dimensionless number) was calculated as the ratio of the acceptor signal (GFP, emission at 520 nm) to the donor signal (terbium, emission at 495 nm).

Chain of ATR (Q13535 whole entry): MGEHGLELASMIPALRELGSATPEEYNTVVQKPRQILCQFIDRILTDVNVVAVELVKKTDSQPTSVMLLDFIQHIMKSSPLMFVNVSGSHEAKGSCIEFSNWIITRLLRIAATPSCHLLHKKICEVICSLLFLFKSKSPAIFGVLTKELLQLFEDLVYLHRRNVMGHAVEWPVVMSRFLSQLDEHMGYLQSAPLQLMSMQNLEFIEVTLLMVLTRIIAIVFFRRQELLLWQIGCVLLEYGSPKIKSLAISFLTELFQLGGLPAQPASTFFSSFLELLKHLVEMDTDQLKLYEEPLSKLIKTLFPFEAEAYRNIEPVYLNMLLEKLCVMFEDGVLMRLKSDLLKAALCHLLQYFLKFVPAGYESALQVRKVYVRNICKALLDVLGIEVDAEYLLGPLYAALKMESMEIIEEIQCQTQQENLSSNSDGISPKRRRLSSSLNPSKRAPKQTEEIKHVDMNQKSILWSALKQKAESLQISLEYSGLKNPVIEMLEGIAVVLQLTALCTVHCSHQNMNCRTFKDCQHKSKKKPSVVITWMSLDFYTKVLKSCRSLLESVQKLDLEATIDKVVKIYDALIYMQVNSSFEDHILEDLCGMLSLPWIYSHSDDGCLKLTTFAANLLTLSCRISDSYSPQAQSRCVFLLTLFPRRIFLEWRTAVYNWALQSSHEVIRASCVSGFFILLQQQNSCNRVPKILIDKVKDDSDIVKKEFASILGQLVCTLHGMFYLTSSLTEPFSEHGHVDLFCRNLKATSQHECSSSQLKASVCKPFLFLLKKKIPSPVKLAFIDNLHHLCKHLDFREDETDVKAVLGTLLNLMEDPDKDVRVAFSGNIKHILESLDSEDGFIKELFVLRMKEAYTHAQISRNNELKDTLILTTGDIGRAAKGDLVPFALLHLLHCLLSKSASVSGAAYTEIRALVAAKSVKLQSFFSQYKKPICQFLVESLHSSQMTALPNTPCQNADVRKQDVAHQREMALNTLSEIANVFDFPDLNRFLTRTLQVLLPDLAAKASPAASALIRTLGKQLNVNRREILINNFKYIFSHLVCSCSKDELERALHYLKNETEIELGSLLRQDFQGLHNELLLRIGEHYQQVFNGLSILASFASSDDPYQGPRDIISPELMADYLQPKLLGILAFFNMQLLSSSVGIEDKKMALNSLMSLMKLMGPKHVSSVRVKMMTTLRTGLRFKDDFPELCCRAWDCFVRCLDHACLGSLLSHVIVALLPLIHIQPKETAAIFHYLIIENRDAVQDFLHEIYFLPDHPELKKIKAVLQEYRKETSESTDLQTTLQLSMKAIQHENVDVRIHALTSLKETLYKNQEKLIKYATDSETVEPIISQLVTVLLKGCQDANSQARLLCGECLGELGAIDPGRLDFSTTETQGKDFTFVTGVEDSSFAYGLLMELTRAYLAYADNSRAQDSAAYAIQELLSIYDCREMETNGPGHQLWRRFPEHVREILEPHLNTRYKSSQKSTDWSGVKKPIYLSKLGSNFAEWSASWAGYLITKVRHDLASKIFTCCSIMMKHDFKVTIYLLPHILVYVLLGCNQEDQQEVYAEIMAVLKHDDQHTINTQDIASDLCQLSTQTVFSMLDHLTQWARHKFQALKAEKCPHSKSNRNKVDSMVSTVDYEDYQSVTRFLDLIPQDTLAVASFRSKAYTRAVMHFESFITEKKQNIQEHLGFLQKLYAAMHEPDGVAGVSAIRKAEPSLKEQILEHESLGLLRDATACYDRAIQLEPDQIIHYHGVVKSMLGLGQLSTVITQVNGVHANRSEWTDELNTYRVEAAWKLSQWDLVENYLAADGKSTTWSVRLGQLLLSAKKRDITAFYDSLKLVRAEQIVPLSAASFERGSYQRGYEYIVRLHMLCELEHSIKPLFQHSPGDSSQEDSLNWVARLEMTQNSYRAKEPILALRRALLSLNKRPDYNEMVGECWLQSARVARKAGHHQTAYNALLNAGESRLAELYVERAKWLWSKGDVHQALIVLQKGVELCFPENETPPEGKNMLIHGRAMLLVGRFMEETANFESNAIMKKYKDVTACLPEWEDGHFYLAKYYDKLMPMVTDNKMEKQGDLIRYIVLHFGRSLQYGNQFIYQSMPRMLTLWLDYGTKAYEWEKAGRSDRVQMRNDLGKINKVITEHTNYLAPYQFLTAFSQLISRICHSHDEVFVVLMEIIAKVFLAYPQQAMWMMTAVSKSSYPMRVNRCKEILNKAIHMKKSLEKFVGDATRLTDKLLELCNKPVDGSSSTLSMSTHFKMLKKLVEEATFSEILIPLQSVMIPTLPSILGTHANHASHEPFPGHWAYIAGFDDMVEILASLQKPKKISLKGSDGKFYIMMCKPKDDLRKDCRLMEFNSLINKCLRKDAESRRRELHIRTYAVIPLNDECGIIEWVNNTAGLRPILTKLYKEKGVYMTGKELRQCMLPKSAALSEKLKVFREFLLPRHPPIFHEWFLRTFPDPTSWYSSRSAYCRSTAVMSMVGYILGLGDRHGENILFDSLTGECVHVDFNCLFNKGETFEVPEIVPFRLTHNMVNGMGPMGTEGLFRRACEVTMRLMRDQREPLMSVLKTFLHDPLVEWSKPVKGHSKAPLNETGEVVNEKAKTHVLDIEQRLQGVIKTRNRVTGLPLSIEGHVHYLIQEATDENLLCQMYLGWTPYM
Chain of mTOR (P42345 1360-2549): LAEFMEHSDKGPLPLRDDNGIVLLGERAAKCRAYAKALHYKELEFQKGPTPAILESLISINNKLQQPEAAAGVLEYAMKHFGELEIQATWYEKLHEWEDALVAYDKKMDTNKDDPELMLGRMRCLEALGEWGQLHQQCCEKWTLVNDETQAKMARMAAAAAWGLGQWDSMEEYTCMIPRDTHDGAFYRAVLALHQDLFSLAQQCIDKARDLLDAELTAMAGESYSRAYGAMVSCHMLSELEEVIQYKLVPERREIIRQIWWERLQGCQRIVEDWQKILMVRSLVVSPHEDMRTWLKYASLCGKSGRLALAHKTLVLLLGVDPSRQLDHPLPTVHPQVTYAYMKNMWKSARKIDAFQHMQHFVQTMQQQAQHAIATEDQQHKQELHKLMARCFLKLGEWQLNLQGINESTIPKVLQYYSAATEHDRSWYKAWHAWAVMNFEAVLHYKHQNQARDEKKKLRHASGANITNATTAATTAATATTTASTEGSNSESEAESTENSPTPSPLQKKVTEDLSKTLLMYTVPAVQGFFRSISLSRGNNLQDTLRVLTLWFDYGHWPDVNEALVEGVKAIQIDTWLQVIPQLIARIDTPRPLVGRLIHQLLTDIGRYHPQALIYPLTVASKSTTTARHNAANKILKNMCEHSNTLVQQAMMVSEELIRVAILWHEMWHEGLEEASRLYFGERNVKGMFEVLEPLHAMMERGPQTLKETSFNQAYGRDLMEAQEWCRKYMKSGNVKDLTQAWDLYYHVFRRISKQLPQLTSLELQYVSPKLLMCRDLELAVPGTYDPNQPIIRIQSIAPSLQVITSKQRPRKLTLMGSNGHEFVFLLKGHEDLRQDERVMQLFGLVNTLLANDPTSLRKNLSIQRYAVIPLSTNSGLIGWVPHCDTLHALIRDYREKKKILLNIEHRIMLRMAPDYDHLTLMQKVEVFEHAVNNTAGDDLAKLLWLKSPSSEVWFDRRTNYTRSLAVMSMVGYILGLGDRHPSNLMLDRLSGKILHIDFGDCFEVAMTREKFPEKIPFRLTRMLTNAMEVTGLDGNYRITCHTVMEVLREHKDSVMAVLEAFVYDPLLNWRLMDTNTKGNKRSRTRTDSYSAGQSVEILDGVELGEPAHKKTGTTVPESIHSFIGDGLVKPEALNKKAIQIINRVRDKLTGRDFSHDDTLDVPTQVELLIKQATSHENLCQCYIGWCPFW

SMILES | EC50 (ATR; hydroxyurea 2.5 mM) [µM] | also measured
CN(C)c1nc2ccccc2n1-c1nc2c(c(C(C)(C)S(C)(=O)=O)n1)OC[C@@H]1COCCN21 [Example 79] | 0.1 to 1 | IC50 (PI3K (p110α/p85α)): 28.6 µM
CS(=O)(=O)C1(c2nc(-c3ccc(F)c4[nH]ccc34)nc3c2OC[C@@H]2COCCN32)CC1 [Example 110] | > 1 | IC50 (DNA-PK): 10 µM; IC50 (PI3K (p110α/p85α)): 50 µM; IC50 (mTOR): 10 µM
CN1CCC(c2nc(-c3cccc4[nH]ccc34)nc3c2OCC2COCCN32)(S(C)(=O)=O)CC1 (centres unmarked) [Example 36] | > 1 | 
CS(=O)(=O)C1(c2nc(-c3cc(F)cc4[nH]ccc34)nc3c2OC[C@@H]2COCCN32)CCC1 [Example 77] | < 0.1 | IC50 (DNA-PK): 10 µM; IC50 (PI3K (p110α/p85α)): 5.36 µM; IC50 (mTOR): > 10 µM
C[S@TB17](=O)(=O)Nc1nc(-c2cccc3[nH]ccc23)nc2c1OCC1COCCN21 (centres unmarked) [Example 35] | > 1 | 
CNc1nc2ccccc2n1-c1nc2c(c(C(C)(C)[S@TB1](C)(=O)=O)n1)OCCC1COCCN21 (centres unmarked) [Example 31] | < 0.1 | 
CS(=O)(=O)C1(c2nc(-c3cncc4[nH]ccc34)nc3c2OCC2COCCN32)CCOCC1 (centres unmarked) [Example 9] | 0.1 to 1 | 
CC(C)(c1nc(-c2c(F)ccc3[nH]ccc23)nc2c1OCC1COCCN21)S(C)(=O)=O (centres unmarked) [Example 14] | 0.1 to 1 | 
CS(=O)(=O)C1(c2nc(-c3ccnc4[nH]ccc34)nc3c2OCC2COCCN32)CCOCC1 (centres unmarked) [Example 18] | < 0.1 | 
CC(C)(C#N)c1nc(-c2cccc3[nH]ccc23)nc2c1OCC1COCCN21 (centres unmarked) [Example 40] | 0.1 to 1 | 
CS(=O)(=O)C1(c2nc(-c3cccc4[nH]ccc34)nc3c2OCC[C@@H]2COCCN32)CCOCC1 [Example 22] | 0.1 to 1 | 
C[S@TB17](=O)(=O)C1(c2nc(-c3cc(F)cc4[nH]ccc34)nc3c2OCCC2COCCN32)CCOCC1 (centres unmarked) [Example 33] | 0.1 to 1 | 
CNc1nc2ccccc2n1-c1nc2c(c(C3(S(C)(=O)=O)CCOCC3)n1)OCC1COCCN21 (centres unmarked) [Example 12] | 0.1 to 1 | 
c1cc(-c2nc(-c3cccc4[nH]ccc34)c3c(n2)N2CCOCC2CO3)c2cc[nH]c2c1 (centres unmarked) [Example 42] | 0.1 to 1 | 
Cc1cc2c(-c3nc4c(c(C5(S(C)(=O)=O)CCOCC5)n3)OCC3COCCN43)cccc2[nH]1 (centres unmarked) [Example 20] | 0.1 to 1 | 
CC(C)(c1nc(-c2cccc3[nH]ccc23)nc2c1OCC1COCCN21)S(=O)(=O)C1CC1 (centres unmarked) [Example 4] | < 0.1 | 
CC(C)(O)c1nc(-c2cc(F)cc3[nH]ccc23)nc2c1OC[C@@H]1COCCN21 [Example 45] | 0.1 to 1 | 
CNc1nc2cc(C#N)ccc2n1-c1nc2c(c(C(C)(C)S(C)(=O)=O)n1)OC[C@@H]1COCCN21 [Example 113] |  | EC50 (ATR; hydroxyurea […]): > 1 µM
CCCNc1nc2ccccc2n1-c1nc2c(c(C(C)(C)S(C)(=O)=O)n1)OC[C@@H]1COCCN21 [Example 65] | < 0.1 | 
COc1cc(-c2nc3c(c(C4([S@TB1](C)(=O)=O)CCOCC4)n2)OCCC2COCCN32)c2cc[nH]c2c1 (centres unmarked) [Example 34] | 0.1 to 1 | 
COc1ccc(-c2nc3c(c(C4(S(C)(=O)=O)CCOCC4)n2)OCC2COCCN32)c2cc[nH]c12 (centres unmarked) [Example 37] | 0.1 to 1 | 
CNc1nc2ccccc2n1-c1nc2c(c(C3(S(C)(=O)=O)CCOCC3)n1)OCCC1COCCN21 (centres unmarked) [Example 32] | > 1 | 

SMILES | EC50 (ATR; hydroxyurea 2.5 mM) [µM] | also measured
CNc1nc2ccccc2n1-c1nc2c(c(C(C)(C)O)n1)OCC1COCCN21 (centres unmarked) [Example 39] | 0.1 to 1 | 
CS(=O)(=O)C1(c2nc(-c3cccc4[nH]ccc34)nc3c2OCC2COCCN32)CC1 (centres unmarked) [Example 27] | 0.1 to 1 | 
CS(=O)(=O)Cc1nc(-c2cccc3[nH]ccc23)nc2c1OCC1COCCN21 (centres unmarked) [Example 7] | 0.1 to 1 | 
CS(=O)(=O)c1cccc(-c2nc(-c3cccc4[nH]ccc34)nc3c2OCC2COCCN32)c1 (centres unmarked) [Example 43] | 0.1 to 1 | 
COc1cc(-c2nc3c(c(C4(S(C)(=O)=O)CCOCC4)n2)OCC2COCCN32)c2cc[nH]c2c1 (centres unmarked) [Example 19] | < 0.1 | 
CC(C)(c1nc(-c2ccnc3[nH]ccc23)nc2c1OCC1COCCN21)S(C)(=O)=O (centres unmarked) [Example 16] | 0.1 to 1 | 
CCNc1nc2ccccc2n1-c1nc2c(c(C(C)(C)S(C)(=O)=O)n1)OC[C@@H]1COCCN21 [Example 64] | 0.1 to 1 | 
CC(C)Nc1nc2ccccc2n1-c1nc2c(c(C(C)(C)S(C)(=O)=O)n1)OC[C@@H]1COCCN21 [Example 63] | < 0.1 | 
CNc1nc2cc(Cl)ccc2n1-c1nc2c(c(C3(S(C)(=O)=O)CCC3)n1)OC[C@@H]1COCCN21 [Example 94] | > 1 | 
CC(C)(c1nc(-c2cccc3[nH]ccc23)nc2c1OCC[C@@H]1COCCN21)S(C)(=O)=O [Example 25] | 0.1 to 1 | IC50 (PI3K (p110α/p85α)): 23.4 µM; IC50 (mTOR): 0.582 µM
CS(=O)(=O)C1(c2nc(-c3cc(F)cc4[nH]ccc34)nc3c2OCC2COCCN32)CCOCC1 (centres unmarked) [Example 17] | < 0.1 | 
CC1(c2nc(-c3cccc4[nH]ccc34)nc3c2OCC2COCCN32)CCCS1(=O)=O (centres unmarked) [Example 41] | 0.1 to 1 | 
CC(C)(c1nc(-c2cccc3[nH]ncc23)nc2c1OC[C@H]1COCCN21)S(C)(=O)=O [Example 21] | > 1 | 
CS(=O)(=O)C1(c2nc(-c3cccc4[nH]ccc34)nc3c2OC[C@@H]2COCCN32)CCNCC1 [Example 69] | 0.1 to 1 | 
COc1cc(-c2nc3c(c(C4(S(C)(=O)=O)CCC4)n2)OC[C@@H]2COCCN32)c2cc[nH]c2c1 [Example 78] | < 0.1 | IC50 (PI3K (p110α/p85α)): 4.49 µM; IC50 (mTOR): 0.047 µM
CC(C)(c1nc(-c2cccc3[nH]ccc23)nc2c1OCC[C@H]1COCCN21)S(C)(=O)=O [Example 24] | 0.1 to 1 | 
CNc1nc2ccc(Cl)cc2n1-c1nc2c(c(C3(S(C)(=O)=O)CCC3)n1)OC[C@@H]1COCCN21 [Example 95] | > 1 | 
CS(=O)(=O)C1(c2nc(-c3cccc4[nH]ccc34)nc3c2OC[C@@H]2COCCN32)CCC1 [Example 67] | < 0.1 | 
CC(C)(O)c1nc(-c2cccc3[nH]ccc23)nc2c1OCC1COCCN21 (centres unmarked) [Example 38] | 0.1 to 1 | 
CCOC(=O)N1CCC(c2nc(-c3cccc4[nH]ccc34)nc3c2OC[C@@H]2COCCN32)(S(C)(=O)=O)CC1 [Example 68] | 0.1 to 1 | 
CS(=O)(=O)C1(c2nc(-c3c(F)ccc4[nH]ccc34)nc3c2OCC2COCCN32)CCOCC1 (centres unmarked) [Example 13] | 0.1 to 1 | 
CS(=O)(=O)C1(c2nc(-c3ccc(F)c4[nH]ccc34)nc3c2OC[C@@H]2COCCN32)CCC1 [Example 76] | > 1 | IC50 (PI3K (p110α/p85α)): 50 µM
